Experimental data as given in PMC10204553, “Identification of the Binding Epitope of an Anti-Mouse CCR6 Monoclonal Antibody (C6Mab-13) Using 1× Alanine Scanning” (Antibodies, 2023).

What was measured:
[1] = tested on: C6Mab-13; test: ELISA of C6Mab-13 with immobilized alanine-substituted mCCR6 peptides; type: binding, rat; conditions: for binding of C6Mab-13 in ELISA (in words): ELISA with alanine-substituted peptides, Figure 1A; for C6Mab-13 Reactivity: ELISA, peptide immobilized at 10 µg/mL, 30 min 37 °C, C6Mab-13 10 µg/mL, OD at 655 nm
Experimental: Synthesized mCCR6 peptides were immobilized on Nunc Maxisorp 96-well immunoplates (Thermo Fisher Scientific Inc., Waltham, MA, USA) at 10 µg/mL for 30 min at 37 °C. After being washed with phosphate-buffered saline (PBS) containing 0.05% Tween20 (PBST; Nacalai Tesque, Inc., Kyoto, Japan), the wells were blocked with 1% bovine serum albumin (BSA)-containing PBST for 30 min at 37 °C. The plates were incubated with 10 µg/mL of C6Mab-13 for 30 min at 37 °C followed by peroxidase-conjugated anti-rat immunoglobulins (1:20,000 diluted; Sigma-Aldrich Corp.) for 30 min at 37 °C. Enzymatic reactions were conducted at room temperature using the ELISA POD Substrate TMB Kit (Nacalai Tesque, Inc.). Optical density was measured at 655 nm using an iMark microplate reader (Bio-Rad Laboratories, Inc., Berkeley, CA, USA).
Figure 1 Determination of the C6Mab-13 epitope by ELISA using alanine-substituted peptides of mCCR6. (A) Synthesized peptides of mCCR6 (10 µg/mL) were immobilized on immunoplates for 30 min at 37 °C. The plates were incubated with 10 µg/mL of C6Mab-13, followed by treatment with peroxidase-conjugated anti-rat immunoglobulins. Optical density was measured at 655 nm (OD655) using a microplate reader. (B) The schematic illustration of mCCR6 and the C6Mab-13 epitope. The C6Mab-13 epitope of mCCR6 comprises Asp11 from ELISA experiments.

[2] = tested on: C6Mab-13; test: Surface plasmon resonance (Biacore X100), C6Mab-13 immobilized on CM5 chip; type: binding, rat; conditions: KD could not be calculated
Experimental: The dissociation constants (KD) between C6Mab-13 and the epitope region peptides were measured using SPR. C6Mab-13 was immobilized on the CM5 sensor chip according to the manufacturer’s protocol (Cytiva, Marlborough, MA, USA). In summary, C6Mab-13 was diluted to 10 μg/mL by an acetate buffer (pH 4.0; Cytiva) and immobilized using an amine-coupling reaction. The surface of flow cell 2 of the CM5 sensor chip was treated with 1-ethyl-3-(3-dimethylaminopropyl)-carbodiimide and N-hydroxysuccinimide (NHS), followed by an injection of C6Mab-13. The unreacted NHS-ester was blocked with ethanolamine after C6Mab-13 immobilization. The KD between C6Mab-13 and mCCR6 peptides (50, 25, 12.5, 6.25, and 3.13 µM) were measured using Biacore X100 (Cytiva) at 25 °C. The buffer was filtrated with PBS containing 0.05% (v/v) Tween 20 and 0.24% (v/v) dimethyl sulfoxide (FUJIFILM Wako Pure Chemical Corporation, Osaka, Japan). The single-cycle kinetics method was used to measure the binding signals. The data were analyzed using 1:1 binding kinetics to determine the association rate constant (ka), dissociation rate constant (kd), and KD using BIAevaluation software (Cytiva).

Sequence | binding of C6Mab-13 in ELISA (in words) [1] | C6Mab-13 Reactivity [1] | binding to C6Mab-13 in SPR analysis (in words) [2]
MNSTESYFATDDYDNTEYYS [G9A, 1× alanine-substituted mCCR6 1–20 peptide] | bound | +++ (OD655 ≧ 0.3) | lack of binding
MNSTESYFGTADYDNTEYYS [D11A, 1× alanine-substituted mCCR6 1–20 peptide] | did not react | - (OD655 < 0.1) | lack of binding
